According to ChEMBL document CHEMBL2057193, “Preparation of 3-substituted-1-isopropyl-1H-pyrazolo[3,4-d]pyrimidin-4-amines as RET kinase inhibitors” (J Med Chem, 2012):
Activity calls are given as the source filed them. The calls are words filed in the database; no cut-off is given here.

Key:
TPC1 [1] = assay: Antiproliferative activity against human TPC1 cells; format: functional, cell-based
[2] = target: T1, Proto-oncogene tyrosine-protein kinase receptor Ret (Homo sapiens, UniProt P07949); assay: Inhibition of RET by commercial radiometric assay
[3] = target: T2, Mitogen-activated protein kinase; ERK1/ERK2 (Homo sapiens) (UniProt P27361+P28482); assay: Inhibition of ERK1/2 phosphorylation in human HCT116 cells at 50 to 200 nM by Western blotting; format: cell-based; settings: HCT-116
[4] = target: T2, Mitogen-activated protein kinase; ERK1/ERK2 (Homo sapiens); assay: Inhibition of nuclear translocation of ERK1/2 in human HCT116 cells at 200 nM by immunofluorescence microscopy; format: cell-based; settings: HCT-116
HCT-116 [5] = assay: Antiproliferative activity against human HCT116 cells; format: functional, cell-based
HCT-116 [6] = assay: Antiproliferative activity against human HCT116 cells at 1 uM; format: functional, cell-based
TPC1 [7] = assay: Antiproliferative activity against human TPC1 cells at 1 uM; format: functional, cell-based
HCT-116 [8] = assay: Toxicity in human HCT116 cells at =< 10 uM; format: cell-based
TPC1 [9] = assay: Toxicity in human TPC1 cells at =< 10 uM; format: cell-based
[10] = target: T1, Proto-oncogene tyrosine-protein kinase receptor Ret; settings: MCF7, 100 nM
Description: Inhibition of RET in serum starved human MCF7 cells assessed as reduction in GDNF-induced ERK1/2 phosphorylation at 100 nM added 30 mins before GDNF stimulation and incubated for further 45 mins by Western blotting

[11] = target: T1, Proto-oncogene tyrosine-protein kinase receptor Ret; settings: TPC1, 50 to 200 nM
Description: Inhibition of RET in human TPC1 cells expressing constitutively active RET fusion protein assessed as reduction in ERK1/2 phosphorylation at 50 to 200 nM by Western blotting

[12] = target: T1, Proto-oncogene tyrosine-protein kinase receptor Ret; settings: TPC1, 200 nM
Description: Inhibition of RET in human TPC1 cells expressing constitutively active RET fusion protein assessed as reduction in nuclear translocation of ERK1/2 at 200 nM by immunofluorescence microscopy

T1 sequence (P07949 whole entry): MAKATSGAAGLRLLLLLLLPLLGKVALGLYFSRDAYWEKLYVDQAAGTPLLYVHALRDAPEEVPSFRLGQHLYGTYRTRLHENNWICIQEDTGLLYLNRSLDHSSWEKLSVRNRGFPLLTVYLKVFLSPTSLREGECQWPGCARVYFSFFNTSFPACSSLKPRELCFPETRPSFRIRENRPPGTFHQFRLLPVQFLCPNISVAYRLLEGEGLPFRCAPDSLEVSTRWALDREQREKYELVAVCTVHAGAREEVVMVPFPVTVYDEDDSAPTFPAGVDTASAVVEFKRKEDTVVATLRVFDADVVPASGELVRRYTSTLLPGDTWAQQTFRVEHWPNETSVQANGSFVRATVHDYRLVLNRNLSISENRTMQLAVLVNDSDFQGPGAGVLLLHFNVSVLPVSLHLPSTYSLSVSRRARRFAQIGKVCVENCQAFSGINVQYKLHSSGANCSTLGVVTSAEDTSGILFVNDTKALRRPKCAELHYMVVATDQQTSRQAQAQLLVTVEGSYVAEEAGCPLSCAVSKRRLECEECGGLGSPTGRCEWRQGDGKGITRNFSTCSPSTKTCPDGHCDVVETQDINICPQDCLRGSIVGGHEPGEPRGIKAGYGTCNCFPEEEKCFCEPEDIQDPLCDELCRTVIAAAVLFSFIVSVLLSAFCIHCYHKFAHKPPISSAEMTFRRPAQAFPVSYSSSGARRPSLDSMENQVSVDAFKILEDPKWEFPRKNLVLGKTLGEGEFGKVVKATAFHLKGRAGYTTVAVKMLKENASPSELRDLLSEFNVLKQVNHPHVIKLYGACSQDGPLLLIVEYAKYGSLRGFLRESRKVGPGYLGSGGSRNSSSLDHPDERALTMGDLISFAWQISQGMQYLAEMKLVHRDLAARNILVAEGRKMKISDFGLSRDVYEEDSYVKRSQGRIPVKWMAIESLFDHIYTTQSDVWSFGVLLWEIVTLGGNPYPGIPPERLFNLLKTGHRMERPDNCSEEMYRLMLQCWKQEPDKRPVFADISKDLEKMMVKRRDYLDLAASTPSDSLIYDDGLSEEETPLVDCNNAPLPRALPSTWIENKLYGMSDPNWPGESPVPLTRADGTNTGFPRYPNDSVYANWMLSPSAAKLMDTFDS
T2 sequence (P27361 whole entry, looked up): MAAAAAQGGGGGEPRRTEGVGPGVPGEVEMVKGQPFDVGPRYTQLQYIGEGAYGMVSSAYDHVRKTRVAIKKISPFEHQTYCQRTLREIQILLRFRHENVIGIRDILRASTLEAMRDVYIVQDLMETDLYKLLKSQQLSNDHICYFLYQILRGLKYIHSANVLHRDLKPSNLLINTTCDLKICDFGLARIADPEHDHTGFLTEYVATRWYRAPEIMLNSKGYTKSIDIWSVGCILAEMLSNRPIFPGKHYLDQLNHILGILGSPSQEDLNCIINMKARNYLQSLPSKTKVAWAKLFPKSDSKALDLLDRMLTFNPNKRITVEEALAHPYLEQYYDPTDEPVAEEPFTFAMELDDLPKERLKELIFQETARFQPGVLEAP
T2 sequence (P28482 whole entry, looked up): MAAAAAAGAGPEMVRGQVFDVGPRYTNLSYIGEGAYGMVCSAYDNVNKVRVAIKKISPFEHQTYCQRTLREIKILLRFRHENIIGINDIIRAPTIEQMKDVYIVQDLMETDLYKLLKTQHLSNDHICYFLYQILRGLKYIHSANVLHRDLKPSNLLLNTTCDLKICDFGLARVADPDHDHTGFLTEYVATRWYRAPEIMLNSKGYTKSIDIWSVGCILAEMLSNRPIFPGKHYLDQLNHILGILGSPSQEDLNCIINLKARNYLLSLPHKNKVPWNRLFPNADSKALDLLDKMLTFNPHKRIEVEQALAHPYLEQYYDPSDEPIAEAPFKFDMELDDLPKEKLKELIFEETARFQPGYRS

Row | IC50 [2] [µM] | inhibition [3] | inhibition [4] | EC50 (HCT-116 [5]) [µM] | inhibition [10] | inhibition [11] | inhibition [12] | Compound | EC50 (TPC1 [1]) [µM] | inhibition (HCT-116 [6]) | inhibition (TPC1 [7]) | Activity (HCT-116 [8]) | Activity (TPC1 [9])
1 | – | – | – | – | – | – | – | CNC(=O)c1cc(Oc2ccc(NC(=O)Nc3ccc(Cl)c(C(F)(F)F)c3)cc2)ccn1 [SORAFENIB] | 2.6 | – | – | – | –
2 | 0.008 | inactive | inactive | 2.4 | Active | Active | Active | CC(C)n1nc(C#Cc2ccccc2)c2c(N)ncnc21 | 3.3 | inactive | Active | Non-toxic | Non-toxic
